From patent US10568961B2, “Photosensitising composition and its uses” (DENTSPLY SIRONA Inc., priority 2008, dated 2020)

Assays:
Format in all cases: cell-based, Enterococcus faecalis
[1] = test system: E. faecalis bacteria (ATCC 29212) biofilm; assay: Disinfection of four-week old biofilm in root canal (CFU from dentine shavings)
From the text: The institutional review board of the National University of Singapore approved the collection and use of extracted human teeth for this experiment. Thirty single rooted teeth maintained in Phosphate Buffer Saline (PBS) with similar shape and sizes were selected for the following experiment. The crown (at the level of Cemento-Enamel Junction) and the […] of the root were removed using a microslice machine (Metal Research, England) to obtain standard sized specimens of 8 mm length. The prepared tooth specimens were selected for the experiments after inspecting for any signs of cracks or damages on the cementum. The remnants of the pulp tissue were removed from the root canal using a barbed broach and the tooth specimens were autoclaved before further experiments.
A single colony of E. faecalis bacteria (ATCC 29212) culture was incubated in All Culture Broth (AC Broth) for 8 hours. The optical density of the culture was adjusted to 1 at 600 nm that corresponds to 10^9 cells/mL. The sterilized tooth specimens were placed in the AC broth (50 mL) with the bacterial culture and incubated in an orbital incubator (120 rpm) at 37° C. under aerobic conditions. The culture medium was replenished once in every two days to remove dead cells and to ensure proper growth of bacteria. After four weeks of incubation, the tooth specimens were subjected to the following experiment.
This experiment was conducted to observe the efficiency of different antimicrobial treatments on a matured root canal biofilm. After the specific incubation period, the tooth specimens were removed and washed with sterile PBS. The specimens were randomly divided into five experimental groups and treated accordingly.
Group 2 (conventional PDT): The tooth specimens in this group were subjected to conventional PDT. The root canals of the specimens were filled with 100 μM of MB (photosensitization) for 20 minutes and was irradiated immediately with 660 nm laser light for 20 minutes to attain a total energy level of 36 J (n=6). […]

[2] = test system: E. faecalis biofilm in root canals; assay: PDT of endodontic bacterial biofilm ex vivo (ten-week biofilm in tooth specimens)
Description: Thirty tooth blocks were prepared by removing the crown at the level of cementoenamel junction and the apical third of the root canal (˜8 mm long). All specimens were instrumented using K-files with sizes from #20 to #40. The smear layer formed during mechanical shaping was removed by rinsing the root canal with sodium hypochlorite (1%) followed by EDTA (100 mM). The prepared single-rooted tooth specimens were incubated with 50 mL of AC media inoculated with a single colony of E. faecalis as described elsewhere (George S and Kishen A, J Biomed Opt, 2000). Incubation was carried out for ten weeks at 37° C. with periodical replacement of growth media under constant shaking (120 rpm). After the incubation period, the tooth specimens were randomly divided into five groups and were treated as follows:
Group 2—Root canal-treatment (RCT) group (n=5): root canals were subjected to conventional cleaning and shaping procedures performed by using a sequence of endodontic file sizes (#25 to #50 K-files; Maillefer Instruments SA, Switzerland). The root canals were repeatedly irrigated with 5 mL of 5.2% sodium hypochlorite before and after instrumentation step using a 28-G needle and a syringe. Ethylenediaminetetraacetic acid (EDTA) 17% was also used at the end of instrumentation to remove the smear layer. Group 3—Conventional PDT group (n=5): root canals were subjected to minimal instrumentation (using #25 K file). These root canals were filled with 100 μM MB in water and were irradiated with 664 nm laser light with a total energy of 31.84 J/cm^2. Group 4—PF4 group (n=5): root canals were subjected to minimal instrumentation (using #25 K file) followed by PDT using PF4. Here, the root canals were filled with PF4 and were left in the dark for 10 minutes. After the sensitization period, the excess of the photosensitizing formulation was partially replaced with perfluorodecahydro naphthalene and the root canals were irradiated with 664 nm diode laser with a total fluence of 31.84 J/cm^2. Group 5—RCT+PF4 group (n=5): root canals were subjected to the conventional root canal disinfection procedure similar to the conventional RCT group (i.e. Group 2) followed by PDT using PF4.
After the specified treatment, the tooth-specimens were split open mesiodistally, and dentine shavings were collected using a round bur of 1 mm diameter held perpendicular to the root canal surface. The dentine shavings were collected at midpoint (coronoapically) from the two halves (buccal and lingual) of each root (n=12). […] Colony-forming units (CFU) were enumerated on the subsequent day, and the mean value of log10 number of bacteria and the standard error were calculated. […] The numbers of tubes positive for bacterial cells were counted against the total number of tubes.

[3] = test system: E. faecalis biofilms grown on a glass cover slip; assay: Structural damage to biofilm by PDT in vitro (CLSM, live/dead stain); conditions: seven-day biofilm, 664 nm, 31.84 J/cm^2
Description: The structural damage to biofilm caused by PDT was assessed on E. faecalis biofilms grown on a glass cover slip that was fixed covering a grove (6 mm diameter) made at the bottom part of a petri dish. E. faecalis cell suspension (100 μL containing ˜10^7 cells/mL) prepared from overnight grown culture in All-Culture (AC) media was added onto the saliva-coated glass-cover slip. Six petri dishes containing the biofilm were tested in each group. After seven days of incubation with periodical replacement of growth media, the biofilm was washed and photosensitised with either 100 μM MB in water or PF4 (MB in an emulsion produced by mixing perfluorodecahydro naphthalene:H2O2:triton-X100 in the ratio 75:24.5:0.5). These biofilms were incubated in the dark for ten minutes, after which the excess of the photosensitising formulation was partially replaced with perfluorodecahydro naphthalene and exposed to irradiation using 664 nm diode laser with a total fluence of 31.84 J/cm^2.
After the PDT, the washed biofilms were stained using 20 μL PBS containing 2 μL of live/dead stain (Molecular Probes, Eugene, Oreg., USA) and were observed using confocal laser scanning microscopy (CLSM). […] The optical sections of the biofilm structure were recorded and analyzed by using FluoView software (Olympus Corporation, Tokyo, Japan).

[4] = after 4 hours of enrichment, compared with the control group

CN(C)c1ccc2nc3ccc(=[N+](C)C)cc-3sc2c1 [MB in water, Methylene blue]
inactivation of bacteria [1]: failed to show significant bacterial reduction
difference in bacterial count ([1]; compared to control group): 0.38 log10
bacterial kill ([1]; corresponds to log10 difference vs control group): 59%
difference in the mean viable count [2, 4]: 1.5 log10
reduction in viable bacteria [2, 4]: 96.89%
% of tooth specimens positive for bacteria after 24 hours of enrichment ([2]; ten-week biofilm, dentine shavings): 100%
CFU (log10) after 4 hours of enrichments (±SD) ([2]; ten-week biofilm, dentine shavings, control group 7.147): 5.639 (±0.066) log10
viability of biofilm bacteria after PDT ([3]; live/dead stain): increased the proportion of dead cells
biofilm thickness after PDT ([3]; untreated biofilm 17 μm): 12 μm
